Data: PMC4063695, “Design of Embedded-Hybrid Antimicrobial Peptides with Enhanced Cell Selectivity and Anti-Biofilm Activity” (PLoS ONE, 2014)
No end group written: not given here.

Tests used:
[1] = system: Gram-negative and Gram-positive strains; assay: MIC over all tested strains (range, geometric mean); format: cell-based; parameters: GM (geometric mean of MIC values from all microbial strains): unit not given here; conditions: all strains of Table 2
Description: (§1) E. coli ATCC25922, P. aeruginosa ATCC27853, S. aureus ATCC29213, S. epidermidis ATCC12228, S. faecalis ATCC29212 and B. subtilis CMCC63501 were obtained from the College of Veterinary Medicine, Northeast Agricultural University (Harbin, China), E. coli K88, E. coli CVCC1515 and P. aeruginosa ATCC15442 were bestowed by Prof. J.H. Wang (Gene Engineering Laboratory, Feed Research Institute, Chinese Academy of Agricultural Sciences Beijing, China) and E. coli UB1005 was kindly provided by Prof. Q.S. Qi (State Key Laboratory of Microbial Technology, Shandong University, China). […] Briefly, 50 µl of approximate 0.5–1 × 10^6 colony forming units (CFU)/ml of cells were diluted in Mueller-Hinton broth and distributed to 96-well plate, 50 µl of twofold peptides were added and the plates was incubated at 37°C for 18–24 h. The MIC values were calculated as the lowest peptide concentration that prevented visible turbidity and negative control of the pure broth without microbes. The tests were performed at least three times in duplicate.

E. coli ATCC25922 [2] = assay: MIC after treatment with serum, enzymes and heat; format: cell-based, Escherichia coli
Description: as §1
(§2) The stability of peptides was tested in the MIC assay in different environments, including salt sensitivity, human serum, thermal stability and susceptibility to enzymes. For salt sensitivity, 0.5–1 × 10^6 CFU/ml of P. aeruginosa ATCC27853 and E. coli ATCC25922 were treated with peptides, while different salts were added to MHB, and the final concentrations of physiological salts were as follows: 150 mM NaCl, 4.5 mM KCl, 1 mM MgCl2, 6 µM NH4Cl, 8 µM ZnCl2, 4 µM FeCl3 and […] [33]. Except salt sensitivity, only E. coli ATCC25922 was treated with peptides. […] For testing peptide sensitivity to the proteolytic enzymes, the peptides were incubated in advance at 37°C for 1 h with a 1 mg/ml final concentration of the proteolytic enzymes (trypsin, pepsin, papain and proteinase K). For testing thermal stability, incubation occurred at 100°C for 1 h. After these treatments, the procedures were same as MIC assay described above.

[3] = system: human red blood cells (hRBC); assay: Hemolytic activity; format: cell-based; conditions: minimum concentration that caused 5% hemolysis of hRBC (footnote); 1% hRBC in PBS pH 7.4, 1 h, 37°C, OD 492 nm
Method: The amount of released hemoglobin by the lysis of erythrocytes was measured for hemolytic activity of peptides. Human erythrocytes were obtained from a healthy donor with written informed consent. The experimental protocol was reviewed and approved by the ethics committee of the Northeast Agricultural University Hospital. The measurement was based on a previously described method. The fresh hRBCs were washed three times by centrifugation (1000 g, 5 min, 4°C) in PBS (pH 7.4), and then resuspended in PBS to obtain the erythrocyte with a dilution of approximately 1% (v/v). Then, 50 µL of hRBCs solution was incubated with 50 µL of different concentrations of the peptides dissolved in PBS for 1 h at 37°C, before centrifugation (1000 g, 5 min, 4°C) again. The absorbance of the supernatants was measured at optical density (OD) 492 nm. […] The control samples for 0% and 100% hemolysis consisted of hRBCs in PBS (Ablank) only and in 0.1% Triton X-100 (Atriton), respectively. The percentage of hemolysis was calculated according to the following equation: [drawing 3]

P. aeruginosa ATCC27853 = assay: MIC in the presence of physiological salts; format: cell-based, Pseudomonas aeruginosa; parameters: unit not given here
Description: as §1, §2

E. coli ATCC25922 [4] = assay: MIC in the presence of physiological salts; format: cell-based, Escherichia coli; parameters: unit not given here
Description: as §1, §2

E. coli UB1005 = assay: Cytoplasmic membrane electrical potential, diSC3-5; format: cell-based, Escherichia coli; conditions: diSC3-5 release over 600 s
Method: Peptides could alter the electrical potential of cytoplasmic membrane, and this potential that was measured by using E. coli UB1005 cells and diSC3-5 (Sigma), a membrane potential-sensitive fluorescent dye, as previously described, [35]. E. coli UB1005 was cultured to logarithmic phase in MHB, harvested by centrifugation, washed twice with buffer (5 mM of HEPES and 20 mM of glucose, pH 7.4) and resuspended to an OD600 of 0.05 in the identical buffer. The dye (diSC3-5) was added to above buffer at a final concentration of 0.4 µM. And the bacteria were incubated to take up the dye for 90 min. KCl was added to a final concentration of 0.1 M for equilibrating K^+ concentration between extracellular and intracellular environment, and then the bacteria were incubated at room temperature for 10 min. The cell suspension (2 ml) was placed in a 1-cm cuvette, and the peptides were added to different concentrations. The fluorescence intensity changes were monitored by using an F-4500 fluorescence spectrophotometer (Hitachi, Japan) with an excitation wavelength of 622 nm and an emission wavelength of 670 nm.

[5] = all kinds of salts in physiological concentrations

RFRRLFRIRVRVLKKI-NH2 [R-FV-I16]
GM (geometric mean of MIC values from all microbial strains) [1]: 2
MIC, Serum 25% (E. coli ATCC25922 [2]; E. coli ATCC25922, 25% human serum in MHB): 4
MIC, Serum 50% (E. coli ATCC25922 [2]; E. coli ATCC25922, 50% human serum in MHB): 16
MIC, Heat 100°C (E. coli ATCC25922 [2]; E. coli ATCC25922, peptide incubated at 100°C for 1 h): 1
MIC, Enzymes Caroid (E. coli ATCC25922 [2]; E. coli ATCC25922, peptide pre-incubated 1 h at 37°C with 1 mg/ml enzyme (method names papain)): 8
MIC, Enzymes Pepsin (E. coli ATCC25922 [2]; E. coli ATCC25922, peptide pre-incubated 1 h at 37°C with 1 mg/ml pepsin): 8
MIC, Enzymes Proteinase K (E. coli ATCC25922 [2]; E. coli ATCC25922, peptide pre-incubated 1 h at 37°C with 1 mg/ml proteinase K): >128
MIC, Enzymes Trypsin (E. coli ATCC25922 [2]; E. coli ATCC25922, peptide pre-incubated 1 h at 37°C with 1 mg/ml trypsin): 4
antimicrobial activity after heat (in words) (E. coli ATCC25922 [2]; E. coli, incubation at 100°C for approximately 1 h): remained stable
MHC [3]: 128 µM
MIC, CaCl2 (P. aeruginosa ATCC27853; 2.5 µM CaCl2 in MHB): 4
MIC, FeCl3 (P. aeruginosa ATCC27853; 4 µM FeCl3 in MHB): 4
MIC, NH4Cl (P. aeruginosa ATCC27853; 6 µM NH4Cl in MHB): 4
MIC, ZnCl2 (P. aeruginosa ATCC27853; 8 µM ZnCl2 in MHB): 4
MIC, MgCl2 (P. aeruginosa ATCC27853; 1 mM MgCl2 in MHB): 8
MIC, KCl (P. aeruginosa ATCC27853; 4.5 mM KCl in MHB): 4
MIC, NaCl (P. aeruginosa ATCC27853; 150 mM NaCl in MHB): 4
MIC, Mix (P. aeruginosa ATCC27853; [5]): 16
MIC, Control (P. aeruginosa ATCC27853; no added salts, unit not given): 4
MIC, FeCl3 (E. coli ATCC25922 [4]; 4 µM FeCl3 in MHB): 1
MIC, NH4Cl (E. coli ATCC25922 [4]; 6 µM NH4Cl in MHB): 1
MIC, ZnCl2 (E. coli ATCC25922 [4]; 8 µM ZnCl2 in MHB): 1
MIC, MgCl2 (E. coli ATCC25922 [4]; 1 mM MgCl2 in MHB): 4
MIC, KCl (E. coli ATCC25922 [4]; 4.5 mM KCl in MHB): 1
MIC, NaCl (E. coli ATCC25922 [4]; 150 mM NaCl in MHB): 4
MIC, Mix (E. coli ATCC25922 [4]; [5]): 8
MIC, CaCl2 (E. coli ATCC25922 [4]; in MHB): 1
MIC, Control (E. coli ATCC25922 [4]; no added salts, unit not given): 1
cytoplasmic membrane depolarization (in words) (E. coli UB1005): able to permeabilize the bacterial cell membrane even at a lower concentration than their MICs
